Results published in patent US20040038369A1, “Airway-specific trypsin-like enzymes and method of using the same” (priority 2000, published 2004).
Counter-ions that a name gives are not always drawn.

Assays:
PAR-2 = biological target: T1, PAR-2 (Homo sapiens, UniProt P55085); test: Calcium influx in PAR-2-expressing insect cells; assay type: cell-based; settings: AST 2 units/mL; trypsin, thrombin 0.1 to 10 units/mL; SFLLRNamide, SLIGRL 10 to 100 μM
T1 construct: expressed in transfected cells; host or cells: Sf9 insect cells infected with recombinant baculovirus VL-PAR (pVL1393)
T1 sequence (P55085 26-397): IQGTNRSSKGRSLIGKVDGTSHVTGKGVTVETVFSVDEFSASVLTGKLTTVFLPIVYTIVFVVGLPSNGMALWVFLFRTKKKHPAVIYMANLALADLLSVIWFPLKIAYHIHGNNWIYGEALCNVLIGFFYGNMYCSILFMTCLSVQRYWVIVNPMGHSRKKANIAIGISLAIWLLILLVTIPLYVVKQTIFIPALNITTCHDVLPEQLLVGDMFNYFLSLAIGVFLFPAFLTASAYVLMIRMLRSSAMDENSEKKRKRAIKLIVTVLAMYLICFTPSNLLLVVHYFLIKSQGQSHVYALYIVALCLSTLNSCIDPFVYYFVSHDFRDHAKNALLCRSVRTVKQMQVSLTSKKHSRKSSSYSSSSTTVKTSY
Experimental: The above-obtained recombinant baculovirus VL-PAR for expressing the PAR was used to infect 1.0×10^7 Sf9 cells sowed on a 75 cm^2 flask at an MOI=2, and was then left and stationally cultured at 27° C. for 40 hours. After the culture, the infected cells were recovered and then subjected to a calcium influx experiment to-confirm the function of the PAR.
The recovered infected cells (about 5×10^6 cells) were once washed with HEPES-Tyrode buffer solution-Ca^2+ (−) pH 7.4, and then suspended in 5 mL of HEPES-Tyrode buffer solution (containing Fura2-AM, 1 μg/mL) to load the Fura2-AM on the cells at 27° C. for 30 minutes. The suspension was centrifuged at 800 rpm at room temperature for 5 minutes to recover the cells. The cells were twice washed with HEPES-Tyrode buffer solution-Ca^2+ (−) pH 7.4 and then resuspended in 5 mL of HEPES-Tyrode buffer solution-Ca^2+ (−) pH 7.4. The cell suspension was mixed with 5 μL of 1M CaCl2 to give a final concentration of 1 mM CaCl2, and then incubated in a shaded state at room temperature for 5 minutes. The prepared Fura2-AM-loaded infected cells were dispensed into a 96 well plate in a volume of 100 μL/well, further subjected to the dispensation of HEPES-Tyrode buffer solution-C^2+ (+) pH 7.4 in a volume of 80 μL/well, and then assayed with a Fluorescence Drug Screening System (made by Hamamatsu Photonics Co.). Namely, [intensity of 500 nm fluorescent light due to 340 nm exciting light]/[intensity of 500 nm fluorescent light due to 380 nm exciting light] (reflecting the concentration of calcium in the cells) was assayed.

[1] = test system: normal human airway epithelial cells; test: Calcium influx in normal human airway epithelial cells; assay type: cell-based; settings: AST 2 units/mL; trypsin 10 to 100 units/mL; SFLLRNamide 100 μM
Experimental: The Ca^2+ influx due to the AST was examined with confluent normal epithelial cells adhered to three 10 cm dishes (purchased from BioWhittaker Corp.). The cells were peeled with a 10 mM EDTA/HEPES-Tyrode buffer solution for 10 minutes, recovered by a centrifugal treatment at 800 rpm at room temperature for 5 minutes, and then resuspended in 5 mL of HEPES-Tyrode buffer solution-Ca^2+ (−) pH 7.4. The recovered cells (about 1.2×10^6 cells) were suspended in 5 mL of HEPES-Tyrode buffer solution (1 μg/mL, containing Fura2-AM) to load the Fura2-AM to the cells at 37° C. for one hour. The cells were recovered by a centrifugal treatment at 800 rpm at room temperature for 5 minutes, twice washed with HEPES-Tyrode buffer solution-Ca^2+ (−) pH 7.4, and then resuspended in […] of HEPES-Tyrode buffer solution-Ca^2+ (−) pH 7.4. The cell suspension was mixed with 5 μL of 1M CaCl2 to give a final concentration of 1 mM CaCl2, and then incubated in a shaded state at room temperature for 5 minutes. The prepared Fura2-AM-loaded infected cells were dispensed into a 96 well plate in a volume of 100 μL/well, further subjected to the dispensation of HEPES-Tyrode buffer solution-Ca^2+ (+) pH 7.4 in a volume of 80 μL/well, and then assayed with Fluorescence Drug Screening System (Hamamatsu Photonics Co.). […]

BEAS-2B = test: Calcium influx in airway epithelial cell strain BEAS-2B; assay type: cell-based; settings: AST 2 units/mL; trypsin 10 to 100 units/mL; SFLLRNamide 100 μM
Experimental: The Ca^2+ influx due to the AST was examined with respect to an airway epithelial cell strain BEAS-2B. The confluent cells adhered to six 10 cm dishes were used. The cells were peeled with a 10 mM EDTA/HEPES-Tyrode buffer solution for 10 minutes, recovered by a centrifugal treatment at 1,500 rpm at room temperature for 5 minutes, and then resuspended in 10 mL of HEPES-Tyrode buffer solution-Ca^2+ (−) pH 7.4. The recovered cells (about 1.1×10^7 cells) were suspended in 11 mL of HEPES-Tyrode buffer solution (1 μg/mL, containing Fura2-AM) to load the Fura2-AM at 37° C. for 30 minutes. The cells were recovered by a centrifugal treatment at 1,500 rpm at room temperature for 5 minutes, twice washed with HEPES-Tyrode buffer solution-Ca^2+ (−) pH 7.4, and then resuspended in 11 mL of HEPES-Tyrode buffer solution-Ca^2+ (−) pH 7.4. The cell suspension was mixed with […] of 1M CaCl2 to give a final concentration of 1 mM CaCl2, and then incubated in a shaded state at room temperature for 5 minutes. The prepared Fura2-AM-loaded infected cells were dispensed into a 96 well plate in a volume of 100 μL/well, further subjected to the dispensation of HEPES-Tyrode buffer solution-Ca^2+ (+) pH 7.4 in a volume of 80 μL/well, and then assayed with Fluorescence Drug Screening System (Hamamatsu Photonics Co.). […]

recombinant AST = biological target: T2, recombinant AST (Homo sapiens, UniProt O60235); test: AST-inhibiting activity of compound; assay type: biochemical; settings: substrate Boc-Phe-Ser-Arg-MCA, 24° C., 6 minutes
T2 construct: 232 amino acids from Ile at the 187th position to Ile at the 418th position; made in house; host or cells: insect cells (Tn-5), recombinant baculovirus
T2 sequence (O60235 187-418): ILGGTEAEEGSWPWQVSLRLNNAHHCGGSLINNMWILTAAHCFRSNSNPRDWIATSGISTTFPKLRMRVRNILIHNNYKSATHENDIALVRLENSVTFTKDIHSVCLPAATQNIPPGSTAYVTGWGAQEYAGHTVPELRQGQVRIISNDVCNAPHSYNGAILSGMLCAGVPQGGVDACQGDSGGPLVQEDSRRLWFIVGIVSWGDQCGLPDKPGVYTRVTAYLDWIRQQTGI
T2 sequence (O60235 162-186 partner limits assumed): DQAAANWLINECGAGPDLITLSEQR
Experimental: 0.05 mL of a 50 mM Tris-HCl buffer solution (pH 8.6) containing 2 ng/mL of the recombinant AST and 0.01% of Tween 20 was mixed with 2 μL of a DMSO solution containing nafamostat mesylate or gabexate mesylate as an evaluation target compound in various concentrations, and with 0.05 mL of a 50 mM Tris-HCl buffer solution (pH 8.6) containing 30 μM of a trypsin synthesis substrate: Boc-Phe-Ser-Arg-MCA, and incubated at 24° C. for 6 minutes. The quantities of the produced AMC were assayed by a fluorometry (fluorescent light: 460 nm, exciting light: 380 nm) with the passage of time, and the enzymatic activity-inhibiting ability of the compound was evaluated.

| Compound | Ca2+ influx (PAR-2) | Ca2+ influx [1] | Ca2+ influx (BEAS-2B) | IC50 (recombinant AST) [nM] |
| --- | --- | --- | --- | --- |
| SFLLRNamide [reference compound] | observed | observed | observed |  |
| gabexate mesylate |  |  |  | 140 |
| N=C(N)c1ccc2cc(OC(=O)c3ccc(N=C(N)N)cc3)ccc2c1 [Nafamostat mesylate, nafamostat mesylate] |  |  |  | 230 |
